# Measurements: patent US10071965B2, “Pyridone FabI inhibitors and uses thereof” (priority 2015, dated 2018)
# Like-named read-outs stand apart in the source and are kept apart here. Marks after values point to notes of the source that are not given here.
# What was measured:
# saFabI [1] = biological target: T1, saFabI (Staphylococcus aureus (strain MRSA252), UniProt Q6GI75); assay: saFabI inhibition kinetics; assay type: biochemical
# [2] = biological target: M. tuberculosis enoyl-ACP reductase InhA (Mycobacterium tuberculosis (strain ATCC 25618 / H37Rv), UniProt P9WGR1); assay: InhA inhibition kinetics; assay type: biochemical
# S. aureus RN4220 = assay: MIC microbroth dilution, S. aureus RN4220; assay type: cell-based, Staphylococcus aureus; details: Staphylococcus aureus
# E. coli MG1655 ΔacrAB = assay: microbe, parasite or virus in culture; assay type: cell-based, Escherichia coli; details: for MIC: Escherichia coli
# E. coli MG1655 = assay: MIC microbroth dilution, E. coli MG1655 with intact AcrAB efflux pump; assay type: cell-based, Escherichia coli; details: for MIC: Escherichia coli
# F. tularensis LVS [3] = assay: microbe, parasite or virus in culture; assay type: cell-based; details: Francisella tularensis; for MIC: read-out: MIC (μm), F. tularensis LVS, Table 3; for inhibition at 5 µg/mL: read-out: Francisella tularensis LVS, % inhib.
# P. mirabilis ATCC35659 = assay: MIC microbroth dilution, P. mirabilis ATCC35659; assay type: cell-based; details: Proteus mirabilis
# M. tuberculosis H37Rv = assay: MIC microbroth dilution, M. tuberculosis H37Rv; assay type: cell-based; details: Mycobacterium tuberculosis
# B. pseudomallei Bp400 [4] = assay: microbe, parasite or virus in culture; assay type: cell-based; details: Burkholderia pseudomallei
# saFabI [5] = biological target: T1, saFabI; assay: Jump dilution assay with saFabI; assay type: biochemical; details: preincubation with NADPH and saFabI
# F. tularensis LVS [6] = details: data according to Ref. 69; cited from earlier work
# B. pseudomallei Bp400 [7] = details: B. pseudomallei Bp400, data according to Ref. 69; cited from earlier work
# Bt38 = assay: microbe, parasite or virus in culture; assay type: cell-based; details: Burkholderia pseudomallei, read-out: Bt38, % inhib.
# [8] = biological target: Francisella tularensis FabI (Francisella tularensis subsp. tularensis (strain SCHU S4 / Schu 4), UniProt Q5NGQ3); assay: biochemical
# bpFabI = bpFabI (Burkholderia pseudomallei, UniProt A0A0H3HP34); assay: biochemical
# bpFabV = bpFabV (Burkholderia pseudomallei, UniProt Q63TE9); assay type: biochemical; details: read-out: Burkholderia pseudomallei IC50 (μM), bpFabV
# YpFabV = YpFabV (Yersinia pestis, UniProt Q8Z9U1); assay: biochemical
# Yersinia pestis = assay: microbe, parasite or virus in culture; assay type: cell-based; details: read-out: Yersinia pestis, % inhib.
# ecFabI = ecFabI (Escherichia coli (strain K12), UniProt P0AEK4); assay: ecFabI inhibition kinetics; assay type: biochemical; details: Ki^app (nM), [S]/KS = 0.19
# [9] = system: PT166-resistant S. aureus RN4220 mutants; assay: microbe, parasite or virus in culture; assay type: cell-based; details: Staphylococcus aureus
# MRSA strain BAA1762 = assay: Neutropenic mouse thigh infection model; assay type: in vivo, Swiss Webster mice; details: 100 mg/kg dose, MRSA BAA1762, neutropenic mouse
# in vivo = details: female, ICR, mouse, ip, 100 mg/kg
# [10] = RN4220, S. aureus RN4220, Table 3, read-out: MIC (μm)
# [11] = RN4220, S. aureus RN4220, read-out: MIC
# [12] = E. coli MG1655, Table 3, read-out: MIC (μm)
# [13] = M. tuberculosis H37Rv, Table 3, read-out: MIC (μm)
# [14] = H37RV, 4-pyridones table, read-out: Mycobacterium tuberculosis MIC (μg/mL) H37Rv
compound,measurement,setting,value
"Cc1c(N)cccc1Cn1ccc(OCCc2cccs2)cc1=O [CG400549, reference compound]",affinity improvement for saFabI,saFabI [1]; relative to PT173,1.5 fold
same,Ki,[2],582 nM
same,MIC,S. aureus RN4220; [10],5.9 µM
same,MIC,S. aureus RN4220; [11],5.9 µM
same,MIC,E. coli MG1655 ΔacrAB; MG1655,> 375 µM
same,MIC,"E. coli MG1655 ΔacrAB; MG1655, read-out: MIC (μm)",> 375 µM
same,lower antibacterial activity,"E. coli MG1655; E. coli versus S. aureus, Table 3",> 64 fold
same,MIC,E. coli MG1655; [12],> 375 µM
same,MIC,F. tularensis LVS [3],5.9 µM
same,MIC,"P. mirabilis ATCC35659; P. mirabilis ATCC35659, read-out: MIC (μm)",> 750 µM
same,MIC,M. tuberculosis H37Rv; [13],> 300 µM
same,MIC,"B. pseudomallei Bp400 [4]; BP400, read-out: MIC (μm)",376 µM
same,off kinetics in jump dilution curve,saFabI [5],rapid off kinetics
"CCc1ccc(Oc2ccccc2)c(O)c1 [PT01, 5-ethyl-2-phenoxyphenol]",MIC,S. aureus RN4220; [10],2.3 µM
same,MIC,S. aureus RN4220; [11],2.3 µM
same,MIC,E. coli MG1655 ΔacrAB; MG1655,0.6 µM
same,MIC,"E. coli MG1655 ΔacrAB; MG1655, read-out: MIC (μm)",0.6 µM
same,MIC,E. coli MG1655; [12],18.7 µM
same,MIC,M. tuberculosis H37Rv; [13],72.9 µM
same,MIC (μM),F. tularensis LVS [6],0.1^c μM
same,MIC (μM),B. pseudomallei Bp400 [7],326.7^c μM
CCCCCCc1cc(=O)c(Oc2ccc(N)cc2C)cn1C [PT155],IC50,[2],107 nM
same,inhibition at 5 µg/mL,F. tularensis LVS [3],91%
same,MIC,M. tuberculosis H37Rv; [14],6.25 µg/mL
same,inhibition at 20 µg/mL,Bt38,90%
same,IC50,[8],53 nM
same,IC50,bpFabI,140 nM
same,IC50,bpFabV,3 ± 0.6 µM
same,IC50,YpFabV,> 50000 nM
same,inhibition at 40 µg/mL,Yersinia pestis,26%
CCCCCCc1cc(=O)c(Oc2ccc([N+](=O)[O-])cc2)cn1C [PT156],IC50,[2],407 nM
same,inhibition at 5 µg/mL,F. tularensis LVS [3],88%
same,MIC,M. tuberculosis H37Rv; [14],50 µg/mL
same,inhibition at 40 µg/mL,Bt38,43%
same,IC50,bpFabI,960 ± 100 nM
same,IC50,bpFabV,0.56 ± 0.1 µM
same,IC50,YpFabV,180 nM
same,inhibition at 40 µg/mL,Yersinia pestis,29%
CCCCCCc1cc(=O)c(Oc2ccccc2C)cn1C [PT166],Ki,"saFabI [1]; Ki (nM), saFabI",2.7 ± 0.6 nM
same,Ki,"saFabI [1]; Ki, saFabI",2.7 nM
same,Ki,"saFabI [1]; Ki^app (nM), saFabI, [S]/KS = 2",10.1 ± 2.1 nM
same,Ki,"saFabI [1]; Staphylococcus aureus Ki (nM), 4-pyridones table",2.7 nM
same,Ki,ecFabI,8.5 ± 0.2 nM
same,IC50,[2],28.6 nM
same,Ki,[2],22 nM
same,MIC,"S. aureus RN4220; RN4220, 4-pyridones table, read-out: Staphylococcus aureus MIC (μg/mL) RN4220",0.24 µg/mL
same,MIC,S. aureus RN4220; [10],0.8 µM
same,MIC,S. aureus RN4220; [11],0.8 µM
same,MIC,"S. aureus RN4220; RN4220, strain RN4220 (parent), Table 4, read-out: MIC μm",0.8 µM
same,MIC,"S. aureus RN4220; RN4220, text, read-out: MIC against Staphylococcus aureus strain RN4220",0.24 µg/mL
same,Escherichia coli MIC (μg/mL) MG1655 ΔacrAB,E. coli MG1655 ΔacrAB; 4-pyridones table,2 µg/mL
same,MIC,E. coli MG1655 ΔacrAB; MG1655,6.7 µM
same,MIC,"E. coli MG1655 ΔacrAB; MG1655, read-out: MIC (μm)",6.7 µM
same,lower MIC against E. coli MG1655 lacking AcrAB,E. coli MG1655 ΔacrAB; relative to CG400549,> 50 fold
same,MIC,"E. coli MG1655; MG1655, 4-pyridones table, in brackets, read-out: MIC for MG1655 with intact efflux pump",> 128 µg/mL
same,MIC,"E. coli MG1655; MG1655, Table 2 footnote e, read-out: MIC against E. coli MG1655 with the intact AcrAB efflux pump",> 425 µM
same,MIC,F. tularensis LVS [3],0.4 µM
same,MIC,"P. mirabilis ATCC35659; ATCC35659, read-out: MIC (μm)",214 µM
same,MIC,M. tuberculosis H37Rv; [14],3.13 µg/mL
same,MIC,"M. tuberculosis H37Rv; H37RV, M. tuberculosis, read-out: MIC, in vitro anti-mycobacterial activity",10.5 µM
same,MIC,M. tuberculosis H37Rv; [13],10.5 µM
same,MIC,"B. pseudomallei Bp400 [4]; BP400, read-out: Burkholderia pseudomallei MIC (μg/mL) Bp400",64 µg/mL
same,MIC,"B. pseudomallei Bp400 [4]; BP400, read-out: MIC (μm)",214 µM
same,MIC,"[9]; read-out: MIC μm, strain 166R.1, FabI A95V",8.8 µM
same,MIC,"[9]; read-out: MIC μm, strain 166R.2, FabI A95V",8.8 µM
same,MIC,"[9]; read-out: MIC μm, strain 166R.3, FabI A95V and F252L",8.8 µM
same,MIC,"[9]; read-out: MIC μm, strain 166R.4, FabI A95V and E71D",8.8 µM
same,MIC,"[9]; read-out: MIC μm, strain 166R.5, no change in fabI",17.6 µM
same,decrease of bacterial burden in the infected thigh,MRSA strain BAA1762,2.8 log cfu/g tissue
same,IC50,[8],24 nM
same,AUC(0-t),in vivo,53000 ng·h/mL
same,Cmax,in vivo,45900 ng/mL
same,Tmax,in vivo,0.25 h
same,half-life,in vivo,2.7 h
